Like-named read-outs stand apart in the source and are kept apart here.
Tests used:
[1] = system: bacteria; details: concentration of 10 uM; cited from earlier work
[2] = system: E. coli; details: 10 uM, 30 min incubation, 24 J/cm^2; cited from earlier work
[3] = system: HT29 cells; assay: Intracellular ROS generation, DCFH-DA probe, flow cytometry; assay type: cell-based; details: HT29, 0.5 uM, light irradiation; order 14≈23>8>18>15>24>>16>20>17≈19≈22>21>>MB
Text: In order to further mimic the biological environment, we measured the intracellular reactive oxygen species (ROS) generation efficiency of these phenothiazine-pyridine compounds by flow cytometry. We employed HT29 cell line as cell model, and 2,7-dichlorofluorescin diacetate (DCFH-DA) as the intracellular ROS indicator, to determine the fluorescence intensity of 2,7-dichlorofluorescin (DCF), which was oxidized from DCFH-DA by ROS. The experiments were repeated for three times using DCFH-DA as control. For comparison, methylene blue was used as positive control. The data were analyzed by GraphPad Prism 6, the drug concentrations are all at 0.5 uM. […] In addition, the intracellular ROS generation efficiency is different from that measured in organic solvent, which may be attributed to the different cellular uptake amount for various compounds and the generation of some other ROS species other than ^1O2 in cells ([…] mechanism).

[4] = system: HT29 cell line; details: 664 laser and 3 J/cm^2 light dose (2008); read-out: IC50 PDT, Stanley B. Brown reported value; cited from earlier work
[5] = system: HT29 cell line; assay: Dark toxicity, MTT assay; assay type: cell-based; details: Homo sapiens, HT-29; HT29; 24 h under dark, MTT; read-out: IC50 DK
Procedure: (§1) Cell lines and culture conditions: A549, HT29, MCF-7, MDA-MB-231 cell lines were maintained in RPMI1640 supplemented with fetal bovine serum (10%) and penicillin-streptomycin solution (1%), and WI38 cells were maintained in DMEM supplemented with fetal bovine serum (10%) and penicillin-streptomycin solution (1%). Approximately 1×10^4 (for A549, HT29, MCF-7, MDA-MB-231) or 1.5×10^4 (for WI38) cells per well were seeded in 96-well plate and incubated overnight light at 37° C. in a humidified atmosphere with 5% CO2.
Dark toxicity: Cells were incubated with different concentrations of photosensitive drug for 24 h in dark, and the cell viabilities were determined by MTT assay

[6] = system: HT29 cell line; assay: Photocytotoxicity (PDT), MTT assay; assay type: cell-based; details: Homo sapiens, HT-29, light or radiation study; HT29; 1 h incubation, 630 nm LED light 30 s, 3.2 J/cm^2, 24 h, MTT; read-out: IC50 PDT
Procedure: as §1
Photocytotoxicity: Cells were incubated with different concentrations of photosensitive drug for 1 h in the dark, then the medium in the well was sucked by a syringe, and washed by PBS. Then a solution of new medium was added, and illuminated by light. After irradiation, the cells were incubated under dark at 37° C. for another 24 h, and the cell viabilities were determined by MTT assay.

[7] = system: S. aureus; details: 10 uM, 30 min drug-incubation, 60 J/cm^2; cited from earlier work

Compound	dark toxicity [1]	log 10-reduction [2] [log 10-reduction]	intracellular ROS generation efficiency [3]	IC50 [4] [µM]	IC50 [5] [µM]	IC50 [6] [µM]	log 10-reduction [7] [log 10-reduction]
CN(C)c1ccc2nc3ccc(=[N+](C)C)cc-3sc2c1 [MB, methylene blue]	obvious dark toxicity	0.5	almost no ROS generation	88.5	> 10	9.2	
CCCCN(CCCC)c1ccc2nc3ccc(=[N+](CCCC)CCCC)cc-3sc2c1.[Br-] [PPA904]	obvious dark toxicity	3					4

From patent US10189862B2, “Phenothiazine-pyridine compounds and uses thereof” (The Chinese University of Hong Kong, priority 2016, dated 2019)
